Measured values published in patent US9084423B2, “Inhibition of bacterial biofilms with imidazole derivatives” (North Carolina State University, priority 2007, dated 2015).
Counter-ions that a name gives are not always drawn.

Tests used:
Format in all cases: cell-based, Pseudomonas aeruginosa
[1] = tested on: P. aeruginosa strain PAO1; test: Static biofilm inhibition assay (crystal violet), PAO1; conditions: for inhibition at 500 µM / IC50: Pseudomonas aeruginosa, PAO1; for IC50: inhibition of biofilm formation, crystal violet, 24 hours
Method: Each compound was assayed for the ability to inhibit the formation of P. aeruginosa biofilms. […] We employed a standard crystal violet reporter assay to assess for the formation of biofilms. Briefly, P. aeruginosa strain PAO1 was allowed to form biofilms in a multi-well plate in the absence or presence of our compounds. Planktonic (or free growing) bacteria were then removed, wells washed vigorously, and crystal violet added. Crystal violet stains the remaining bacteria which, following ethanol solubilization, can be quantitated by spectrophotometry (A540).
(§1) An overnight culture of the bacterial strain being screened against was subcultured at an OD600 of 0.1 into the media used (listed below with strain) and then pipetted into test tubes along with a predetermined concentration of our compound of interest. Test tubes were then poured into tilted Petri dishes and 100 μL of media, strain and compound were then transferred into 96-well PVC microtiter plates. These microtiter plates were then covered, wrapped in Saran™ Wrap polyethylene film (S.C. Johnson, Racine, Wis.) and allowed to incubate at 37° C. for 24 hours. After that time, the medium was discarded and the plates were thoroughly washed with water. The remaining biofilm that was formed during incubation was stained with 100 μL of a 0.1% crystal violet solution and allowed to incubate at room temperature for 30 minutes. After 30 minutes, the crystal violet was discarded and washed thoroughly again with water. The remaining crystal violet that had stained the biofilm in the inside walls of the 96-well PVC plates was solubilized with 200 μL of 95% ethanol. The quantification of biofilm formation was accomplished by transferring 125 μL of the ethanol solution into a polystyrene microtiter dish, which was read by spectrophotometry (A540). After the background has been subtracted from each row, a percent inhibition can be calculated by dividing the amount of crystal violet in wells that contained compound by the amount of crystal violet in wells that contained bacteria only. Each concentration reported during the course of this study was repeated two to five times with each of those biofilm inhibition assays being done in 6 replicates each.
(§2) An overnight culture of the wild type strain was subcultured at an OD600 of 0.10 into LBNS along with a predetermined concentration of the small molecule to be tested for biofilm inhibition. Samples were then aliquoted (100 μL) into the wells of a 96-well PVC microtiter plate. The microtiter dishes were covered and sealed before incubation under stationary conditions at 37° C. for 24 hours. After that time, the medium was discarded and the plates thoroughly washed with water. The wells were then inoculated with a 0.1% aqueous solution of crystal violet (100 μL) and allowed to stand at ambient temperature for 30 minutes. Following another thorough washing with water the remaining stain was solubilized with 200 μL of 95% ethanol. Biofilm inhibition was quantitated by measuring the OD540 for each well by transferring 125 μL of the ethanol solution into a fresh polystyrene microtiter dish for analysis.
(§3) To examine each compound's ability to inhibit the formation of Pseudomonas aeruginosa biofilms, PAO1 and PA14 were employed as the target bacterial strains using a crystal violet reporter assay. G. A. O'Toole, R. Kolter, Mol. Microbiol. 1998, 28, 449. All compounds were initially screened at 500 μM for anti-biofilm activity.
An overnight culture of the wild type strain was subcultured at an OD600 of 0.10 into LBNS along with a predetermined concentration of the small molecule to be tested for biofilm inhibition. Samples were then aliquoted (100 μL) into the wells of a 96-well PVC microtiter plate. The microtiter dishes were covered and sealed before incubation under stationary conditions at 37° C. for 24 hours, After that time, the medium was discarded and the plates thoroughly washed with water. […]

[2] = tested on: P. aeruginosa PA14; test: Static biofilm inhibition assay (crystal violet), PA14; conditions: for inhibition at 500 µM / IC50: Pseudomonas aeruginosa; for inhibition at 500 µM: PA14, 24 h; for IC50: PA14, inhibition of biofilm formation, crystal violet, 24 hours
Method: as §1, §2, §3
as §2, with “for 24 hours, After that” for “for 24 hours. After that”, “violet (100 pt) and allowed” for “violet (100 μL) and allowed”

[3] = tested on: planktonic P. aeruginosa PAO1; test: Planktonic growth (growth curves, colony counts), PAO1; conditions: growth curves and/or colony counts, presence vs absence of compound, at IC50 or as stated
Text: To answer the question of whether the compounds were antibiotics or true inhibitors of biofilm formation, we tested the ability of both compounds to inhibit growth of planktonic P. aeruginosa. Growth was quantitated by measuring optical density at 600 nm. […]

[4] = tested on: planktonic P. aeruginosa PA14; test: Planktonic growth (growth curves, colony counts), PA14; conditions: growth curves and/or colony counts, presence vs absence of compound, at IC50 or as stated

| Structure (SMILES) | inhibition at 500 µM [1] | inhibition at 500 µM [2] | further results |
| --- | --- | --- | --- |
| O=C(NCCc1c[nH]cn1)c1ccc[nH]1 [Compound 34, 1H-pyrrole-2-carboxylic acid [2-(1H-imidazol-4-yl)-ethyl]amide hydrochloride] | 42% | 31% | – |
| Cn1c(C(=O)NCCCc2c[nH]c(=S)[nH]2)cc(Br)c1Br [Compound 49, 4,5-dibromo-1-methyl-pyrrole-2-carboxylic acid [3-(2-thioxo-2,3-dihydro-1H-imidazol-4-yl)-propyl]-amide] | 46% | 38% | – |
| O=C(NCCc1c[nH]cn1)c1cc(Cl)c(Cl)[nH]1 [Compound 37, 4,5-dichloro-1H-pyrrole-2-carboxylic acid [2-(1H-imidazol-4-yl)-ethyl]-amide hydrochloride] | 33% | 38% | – |
| Cn1cc(Br)cc1C(=O)NCCCc1c[nH]c(=S)[nH]1 [Compound 48, 4-bromo-1-methyl-pyrrole-2-carboxylic acid [3-(2-thioxo-2,3-dihydro-1H-imidazol-4-yl)-propyl]-amide] | 41% | 57% | – |
| Cl.Cn1c(C(=O)NCCc2c[nH]cn2)cc(Br)c1Br [Compound 40, 4,5-dibromo-1-methyl-pyrrole-2-carboxylic acid [2-(1H-imidazol-4-yl)-ethyl]-amide hydrochloride] | 73% | 82% | IC50 [1]: 277 ± 35 µM; IC50 [2]: 203 ± 25 µM; microbicidal effect on PAO1 planktonic growth (in words) [3]: not inhibiting biofilm development through microbicidal activity; microbicidal effect on PA14 planktonic growth (in words) [4]: not inhibiting biofilm development through microbicidal activity |
| Nc1nc(CCCNC(=O)c2cc(Cl)c(Cl)[nH]2)c[nH]1 [Compound 20, 4,5-dichloro-1H-pyrrole-2-carboxylic acid [3-(2-amino-1H-imidazol-4-yl)-propyl]-amide hydrochloride] | 37% | 48% | – |
| O=C(NCCCc1c[nH]c(=S)[nH]1)c1cc(Br)c[nH]1 [Compound 44, 4-bromo-1H-pyrrole-2-carboxylic acid [3-(2-thioxo-2,3-dihydro-1H-imidazol-4-yl)-propyl]-amide] | 28% | 14% | – |
| Cn1cccc1C(=O)NCCc1c[nH]cn1 [Compound 38, 1-methyl-pyrrole-2-carboxylic acid [2-(1H-imidazol-4-yl)-ethyl]amide hydrochloride] | 29% | 34% | – |
| O=C(NCCc1c[nH]cn1)c1cc(Br)c(Br)[nH]1 [Compound 36, 4,5-dibromo-1H-pyrrole-2-carboxylic acid [2-(1H-imidazol-4-yl)-ethyl]-amide hydrochloride] | 73% | 69% | – |
| Nc1nc(CCCNC(=O)c2cc(Br)c[nH]2)c[nH]1 [Compound 18, 4-bromo-1H-pyrrole-2-carboxylic acid [3-(2-amino-1H-imidazol-4-yl)-propyl]-amide hydrochloride] | 74% | 86% | IC50 [1]: 323 ± 30 µM; IC50 [2]: 266 ± 23 µM |
| Cl.Cn1cccc1C(=O)NCCCc1c[nH]c(N)n1 [Compound 21, 1-methyl-pyrrole-2-carboxylic acid [3-(2-amino-1H-imidazol-4-yl)-propyl]-amide hydrochloride] | 25% | – | inhibition of PA14 biofilm formation (in words) ([2]; screen at 500 μM): inactive |
| CCCCCCNC(=O)CCCc1c[nH]c(N)n1 [Compound 9, 4-(2-amino-1H-imidazol-4-yl)-N-hexyl-butyramide hydrochloride] | – | – | IC50 [1]: 32.7 ± 6.5 µM; IC50 [2]: 39.9 ± 13 µM |
| CCCCCCCCNC(=O)CCCc1c[nH]c(N)n1 [Compound 10, 4-(2-amino-1H-imidazol-4-yl)-N-octyl-butyramide hydrochloride] | – | – | IC50 [1]: 18.4 ± 2.3 µM; IC50 [2]: 13.3 ± 1.8 µM |
| Cn1cccc1C(=O)NCCCc1c[nH]c(=S)[nH]1 [Compound 47, 1-methyl-pyrrole-2-carboxylic acid [3-(2-thioxo-2,3-dihydro-1H-imidazol-4-yl)-propyl]-amide] | 27% | 36% | – |
| Cl.Nc1nc(CCCNC(=O)c2ccc[nH]2)c[nH]1 [Compound 17, 1H-pyrrole-2-carboxylic acid [3-(2-amino-1H-imidazol-4-yl)-propyl]-amide hydrochloride] | < 10% | 16% | % Biofilm Inhibition at 500 μM vs PAO1 ([1]; 500 μM, hydrochloride): <10% |
| Cn1cc(Br)cc1C(=O)NCCc1c[nH]cn1 [Compound 39, 4-bromo-1-methyl-pyrrole-2-carboxylic acid [2-(1H-imidazol-4-yl)-ethyl]amide hydrochloride] | 37% | 21% | – |
| O=C(NCCCc1c[nH]c(=S)[nH]1)c1cc(Br)c(Br)[nH]1 [Compound 45, 4,5-dibromo-1H-pyrrole-2-carboxylic acid [3-(2-thioxo-2,3-dihydro-1H-imidazol-4-yl)-propyl]-amide] | 61% | 56% | – |
| Nc1nc(CCCNC(=O)c2cc(Br)c(Br)[nH]2)c[nH]1 [Compound 19, 4,5-dibromo-1H-pyrrole-2-carboxylic acid [3-(2-amino-1H-imidazol-4-yl)-propyl]-amide hydrochloride] | < 70% | < 70% | – |
| Cn1cc(Br)cc1C(=O)NCCCc1c[nH]c(N)n1 [Compound 22, 4-bromo-1-methyl-pyrrole-2-carboxylic acid [3-(2-amino-1H-imidazol-4-yl)-propyl]-amide hydrochloride] | 88% | 83% | IC50 [1]: 348 ± 13 µM; IC50 [2]: 309 ± 16 µM |
| O=C(NCCc1c[nH]cn1)c1cc(Br)c[nH]1 [Compound 35, 4-bromo-1H-pyrrole-2-carboxylic acid [2-(1H-imidazol-4-yl)-ethyl]-amide hydrochloride] | 46% | 43% | – |
| O=C(NCCCc1c[nH]c(=S)[nH]1)c1cc(Cl)c(Cl)[nH]1 [Compound 46, 4,5-dichloro-1H-pyrrole-2-carboxylic acid [3-(2-thioxo-2,3-dihydro-1H-imidazol-4-yl)-propyl]-amide] | 41% | 38% | – |
| Cn1c(C(=O)NCCC=C2NC(N)=NC2=O)cc(Br)c1Br [Compound 32, 4,5-dibromo-1-methyl-pyrrole-2-carboxylic acid [3-(2-amino-5-oxo-3,5-dihydro-imidazol-4-ylidene)-propyl]-amide hydrochloride, reference compound] | < 20% | < 20% | – |
| O=C(NCCCc1c[nH]c(=S)[nH]1)c1ccc[nH]1 [Compound 43, 1H-pyrrole-2-carboxylic acid [3-(2-thioxo-2,3-dihydro-1H-imidazol-4-yl)-propyl]-amide] | 39% | 33% | – |
